Test results: patent EP0214743B1, “Use of quinoline derivatives in the manufacture of medicaments for the treatment of cerebrovascular disorders and cerebral senility” (BEECHAM GROUP PLC, priority 1985, dated 1987)
Marks after values point to notes of the source that are not given here.

Tests used:
[1] = test system: Triethyltin-induced cerebral oedema; assay: Triethyltin-induced cerebral oedema in the rat; format: in vivo; conditions: twice daily for 5 days, Wistar rats intoxicated with triethyltin chloride 2 mg/kg
Procedure: 1. Triethyltin-induced cerebral oedema in the rat.
The cerebral oedema is induced by oral administrations repeated for 5 consecutive days - one administration per day - of triethyltin chloride at a dose of 2 mg/kg. The test compound is also administered orally twice daily as aqueous solution or suspension (1ml/100g body-weight); these administrations are given during the 5 days of intoxication with tin. Three groups of 10 male specific pathogen-free (SPF) Wistar rats of 280 ± 10g body-weight are used: • 1 control group • 1 group intoxicated with triethyltin • 1 group intoxicated with triethyltin and treated with the studied compound. The rats are killed on the evening of the fifth day; the brain is removed, weighed fresh and after desiccation to constant weight and the water content of each brain is calculated: [H₂O] = fresh weight - dry weight. [formula] The following are then calculated: • the mean water content (M ± Sm%) of each group; • the protection index P due to the administered compound: [formula] The significance is evaluated by the Mann-Whitney test.

rat cortex = assay: Effect of test compound on oxygen tension (pO₂) of rat cortex; format: in vivo; conditions: for Increase in pO₂ (torr): normoxic cortex, normal anaesthetized rats; for Ischaemic Cortex Increase in pO₂ (torr) (mean ± sem): both carotid arteries ligated 3 weeks previously, N=5
Procedure: 2. Effect of test compound on oxygen tension (pO₂) of rat cortex.
Male rats (280-350g) were anaesthetized with sodium-thio pentone (100 mg/kg i.p.). The arterial blood pressure was recorded from a femoral artery.
The cranium was opened with a trephine (0.6 mm) above the praecentral cortex. The dura mata was carefully removed and a multiwire oxygen sensitive electrode was placed on the cortex.
The electrode current was continuously recorded.
After a stabilisation period the test compound was administered. The change in the cortical pO₂, produced by compound administration, was calculated for each animal.
These measurements were performed in normal animals and in animals in which both carotid arteries had been ligated 3 weeks previously in order to induce cortical ischaemia.

## CC1(C)Nc2ccc(C#N)cc2[C@@H](N2CCCC2=O)[C@@H]1O (relative stereo) [Compound A, trans-2,2-dimethyl-6-cyano-4-(2-oxo-1-pyrrolidinyl)-1,2,3,4-tetrahydroquinolin-3-ol]
[1]; 2x2.5 mg/kg p.o.
  % inhibition of cerebral oedema formation: 30* %
Rat cortex; 0.4 mg/kg i.v., N=3
  Increase in pO₂ (torr): 2.1 ± 2.0 torr
Rat cortex; 0.5 mg/kg i.v.
  Ischaemic Cortex Increase in pO₂ (torr) (mean ± sem): 0.9 ± 0.9 torr
Rat cortex; 0.8 mg/kg i.v., N=2
  Increase in pO₂ (torr): 4.1 ± 0.9 torr
Rat cortex; 1.0 mg/kg i.v.
  Ischaemic Cortex Increase in pO₂ (torr) (mean ± sem): 1.9 ± 1.9 torr
Rat cortex; summary in words of Table 2
  effect on pO₂ in the rat normoxic and chronic ischaemic cortex: increases pO₂

## CC1(C)C=C(N2CCCC2=O)c2cc(Br)ccc2N1 [Compound B, 6-Bromo-2,2-dimethyl-4-(2-oxo-1-pyrrolidinyl)-1,2-dihydroquinoline]
[1]; 2x12.5 mg/kg p.o.
  % inhibition of cerebral oedema formation: 41.4** %
[1]; dosage cell empty in this row, p.o.
  % inhibition of cerebral oedema formation: 100** %

## CC1(C)C=C(N2CCCC2=O)c2cc(C#N)ccc2N1 [Compound C, 6-Cyano-2,2-dimethyl-4-(2-oxo-1-pyrrolidinyl)-1,2-dihydroquinoline]
[1]; 2x1 mg/kg p.o.
  % inhibition of cerebral oedema formation: 53.3** %
[1]; 2x12.5 mg/kg p.o.
  % inhibition of cerebral oedema formation: 100** %
